By IC50 is commonly meant the concentration that inhibits the measured activity by half. One may read the Solubility as the dissolved amount per volume that the medium holds. The low end stands for little dissolved substance, the high end for much dissolved substance.

Data set [1] deals with interaction between GST-MAGEA11 MHD and FAM-PCF11_4 peptide (MAGE-A11:PCF11) (Homo sapiens (Human), UniProt P43364). As to the kind of experiment: TR-FRET dose response competition assay for disruption of MAGE-A11:PCF11 binding. The following applies: read-out: IC50 by TR-FRET for disrupting MAGE-A11:PCF11 interaction. The gist of the method:
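Competition TR-FRET at room temperature in 50 mM Tris pH 7.5, 20 mM MgCl2, 0.1 mg/ml BSA, 1 mM DTT: final 5 nM GST-MAGEA11 MHD, 5 nM Tb-anti-GST, 200 nM FAM-PCF11_4, 90 min. Ratio 520/490 nm converted to % inhibition; IC50 from sigmoidal fit.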
Background: In TR-FRET formats the signal depends on donor and acceptor labels being close together.

Data set [2] concerns MAGE-A11-knockout DAOY cells or those reconstituted with MAGE-A11. As to the kind of experiment: Cell viability alamarBlue assay, DAOY cells. The format is cell-based. The following applies: MAGE-A11 expressing DAOY cells versus MAGE-A11-negative cells, 24 hours, listed as SJ521054. As for the experimental part:
Cell viability Assay. To assess cell viability after SJ521054 treatment, 1×10^4 cells/ml were treated with SJ521054 (0-40 μM) and incubated for 24 hours prior to changing the media and adding alamarBlue (Thermo Fisher Scientific) and incubating for 4 hours at 37° C. Plates were read by measuring the fluorescence with excitation wavelength at 540 nm and emission wavelength at 590 nm on an Enspire plate reader.

Data set [3] is described as follows: Solubility assay (μSOL Evolution, UV). Format: physicochemical. The following applies: 18 h at RT in buffer. As for the experimental part: Solubility assays were carried out on a Biomek FX lab automation workstation (Beckman Coulter, Inc., Fullerton, CA) using SOL Evolution software (pION Inc., Woburn, MA). The detailed method is described as follows. 10 μl of 10 mM compound stock (in DMSO) was added to 190 μl 1-propanol to make a reference stock plate. 5 μl from this reference stock plate were mixed with 70 μl 1-propanol and 75 μl citrate phosphate-buffered saline (PBS; isotonic) to make the reference plate, and the UV spectrum (250-500 nm) of the reference plate was read. 6 μl of 10 mM test compound stock was added to 594 μl buffer in a 96-well storage plate and mixed. The storage plate was sealed and incubated at RT for 18 h. The suspension was then filtered through a 96-well filter plate (pION Inc., Woburn, MA). 75 μl of filtrate was mixed with 75 μl 1-propanol to make the sample plate, and the UV spectrum of the sample plate was read. Calculations were carried out with μSOL Evolution software based on the area under the curve (AUC) of the UV spectrum of the sample and reference plates. All compounds were tested in triplicate.

Each structure is given as a SMILES string. ≈ marks a conversion by molar mass, not a printed value. Entries after “also recorded” stand apart in the source; their conditions may differ.

Chain of interaction between GST-MAGEA11 MHD and FAM-PCF11_4 peptide (MAGE-A11:PCF11) (P43364 218-429): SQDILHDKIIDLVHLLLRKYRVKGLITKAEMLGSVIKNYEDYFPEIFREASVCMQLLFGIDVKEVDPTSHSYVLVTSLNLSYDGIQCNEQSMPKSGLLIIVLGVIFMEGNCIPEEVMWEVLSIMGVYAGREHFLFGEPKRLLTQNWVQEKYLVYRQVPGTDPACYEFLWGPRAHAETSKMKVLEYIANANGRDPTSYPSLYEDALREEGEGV

Consider `FC(F)(F)c1ccc2c(NCCCNCc3ccc4[nH]ccc4c3)ccnc2c1` [SJ000521054-02, N^1-((1H-Indol-5-yl)methyl)-N^3-(7-(trifluoromethyl)quinolin-4-yl)propane-1,3-diamine], for which, in data set [1], the IC50 stood at 400 nM. The cell viability result in data set [2] is reported as “reduces viability of MAGE-A11 expressing DAOY cancer cells; also recorded: decreased the viability”. Moreover, the “Solubility” value in data set [3] was found to be 26.48 µM (≈ 10.6 µg/mL).

Source of the values: patent US20240246941A1, “SUBSTITUTED 4-(3-AMINOPROP-1-YL)AMINOQUINOLINE ANALOGS AS MODULATORS OF MELANOMA-ASSOCIATED ANTIGEN 11 UBIQUITIN LIGASE” (ST. JUDE CHILDREN'S RESEARCH HOSPITAL, INC., priority 2020, published 2024).
